Measured values as given in ChEMBL document CHEMBL2401733 (Bioorg Med Chem Lett, 2013).
≈ marks a conversion by molar mass, not a printed value.

How the values were obtained:
[1] = Metabolic stability in human liver microsomes assessed as compound remaining at 1 uM after 30 mins; format: ADME, Microsome; details: read-out: Stability
[2] = Metabolic stability in rat liver microsomes assessed as compound remaining at 1 uM after 30 mins; format: ADME, Microsome; details: read-out: Stability
[3] = Metabolic stability in mouse liver microsomes assessed as compound remaining at 1 uM after 30 mins; format: ADME, Microsome; details: read-out: Stability
[4] = target: T1, Serine/threonine-protein kinase PLK2 (Homo sapiens, UniProt Q9NYY3)
Description: Inhibition of GST-tagged Plk2 (unknown origin) assessed as inhibition of DEKTDDED phosphorylation at Thr1342 after 60 mins by TR-FRET assay

[5] = target: Serine/threonine-protein kinase PLK1 (Homo sapiens, UniProt P53350); assay: Inhibition of GST-tagged Plk1 (unknown origin) assessed as inhibition of DEKTDDED phosphorylation at Thr1342 after 60 mins by TR-FRET assay
[6] = Solubility of the compound; format: physicochemical
[7] = Apparent permeability across apical to basolateral side in […] MDCK2 cells at 5 uM after 120 mins by LC/MS/MS analysis; format: ADME, cell-based, MDCK-II; details: MDCK
[8] = Lipophilicity, log P of the compound; format: physicochemical; details: octanol/water
[9] = target: T1, Serine/threonine-protein kinase PLK2; remark: listed apart in the source
[10] = test system: Rattus norvegicus; assay: Inhibition of Plk2-mediated phosphorylation of alpha-synuclein at Ser129 in Sprague-Dawley rat cerebral cortex at 100 to 200 mg/kg, po measured at 6 hrs by ELISA relative to control; format: functional; details: dose mg/kg 100-200
[11] = Ratio of drug level from brain to plasma in Sprague-Dawley rat at 200 mg/kg, po measured at 6 hrs; format: ADME, organism-based; design: dose 200 mg/kg, route oral; details: brain and plasma, read-out: BPR
[12] = Ratio of drug level from brain to plasma in Sprague-Dawley rat at 100 mg/kg, po measured at 6 hrs; format: ADME, organism-based; design: dose 100 mg/kg, route oral; details: brain and plasma, read-out: BPR
[13] = Drug uptake in Sprague-Dawley rat brain at 100 mg/kg, po measured at 6 hrs; format: ADME, organism-based; design: dose 100 mg/kg, route oral; details: read-out: Drug uptake
[14] = Drug uptake in Sprague-Dawley rat brain at 200 mg/kg, po measured at 6 hrs; format: ADME, organism-based; design: dose 200 mg/kg, route oral; details: read-out: Drug uptake
[15] = Plasma concentration in Sprague-Dawley rat at 200 mg/kg, po measured at 6 hrs; format: ADME, organism-based; design: dose 200 mg/kg, route oral
[16] = Plasma concentration in Sprague-Dawley rat at 100 mg/kg, po measured at 6 hrs; format: ADME, organism-based; design: dose 100 mg/kg, route oral
[17] = test system: MDR1; assay: Efflux ratio of permeability across apical to basolateral side in […] MDCK cells expressing MDR1 at 5 uM after 120 mins by LC/MS/MS analysis; format: ADME, cell-based

Chain of Serine/threonine-protein kinase PLK1 (P53350 whole entry): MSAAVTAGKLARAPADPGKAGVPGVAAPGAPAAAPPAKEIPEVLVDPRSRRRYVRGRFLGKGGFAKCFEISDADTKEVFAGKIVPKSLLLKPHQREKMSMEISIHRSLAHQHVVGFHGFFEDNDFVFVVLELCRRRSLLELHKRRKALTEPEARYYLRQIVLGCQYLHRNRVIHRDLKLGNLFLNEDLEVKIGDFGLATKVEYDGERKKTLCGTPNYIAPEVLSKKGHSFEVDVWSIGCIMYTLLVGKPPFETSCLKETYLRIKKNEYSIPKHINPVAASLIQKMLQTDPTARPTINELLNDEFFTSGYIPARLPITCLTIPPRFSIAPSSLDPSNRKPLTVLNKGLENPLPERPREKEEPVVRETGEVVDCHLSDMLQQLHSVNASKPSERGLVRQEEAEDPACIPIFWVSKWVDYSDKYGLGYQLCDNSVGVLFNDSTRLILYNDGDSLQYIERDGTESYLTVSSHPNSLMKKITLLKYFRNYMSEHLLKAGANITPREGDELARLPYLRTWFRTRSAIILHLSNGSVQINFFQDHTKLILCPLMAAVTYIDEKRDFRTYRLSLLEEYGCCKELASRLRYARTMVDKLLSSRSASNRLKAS
T1 sequence (Q9NYY3 whole entry): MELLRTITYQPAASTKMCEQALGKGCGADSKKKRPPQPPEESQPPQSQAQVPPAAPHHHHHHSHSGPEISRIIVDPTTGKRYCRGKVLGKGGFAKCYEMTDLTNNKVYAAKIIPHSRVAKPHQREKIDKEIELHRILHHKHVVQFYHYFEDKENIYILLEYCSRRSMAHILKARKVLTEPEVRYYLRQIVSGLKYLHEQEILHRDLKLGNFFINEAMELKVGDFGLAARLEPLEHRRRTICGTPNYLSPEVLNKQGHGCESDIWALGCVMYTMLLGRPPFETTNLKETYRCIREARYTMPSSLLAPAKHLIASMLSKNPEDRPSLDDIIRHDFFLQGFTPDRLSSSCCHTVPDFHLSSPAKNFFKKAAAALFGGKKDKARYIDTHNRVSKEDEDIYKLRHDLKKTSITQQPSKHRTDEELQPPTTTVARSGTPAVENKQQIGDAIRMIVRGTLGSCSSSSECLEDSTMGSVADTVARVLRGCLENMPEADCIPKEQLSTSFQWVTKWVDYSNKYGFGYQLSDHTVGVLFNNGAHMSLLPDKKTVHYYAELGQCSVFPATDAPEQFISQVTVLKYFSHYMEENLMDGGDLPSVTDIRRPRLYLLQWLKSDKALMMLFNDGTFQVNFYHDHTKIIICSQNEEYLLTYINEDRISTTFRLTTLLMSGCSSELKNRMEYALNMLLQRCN

SMILES | remaining at 0.5 h, 1 µM [1] | remaining at 0.5 h, 1 µM [2] | remaining at 0.5 h, 1 µM [3] | IC50 [4] | Papp A→B at 2 h, 5 µM [7] | logP ([8]; read-out: logP) | other results
CC[C@@H]1C(=O)N(C)c2cnc(-c3c[nH]nc3-c3ccc(F)cc3F)nc2N1c1cnn(C)c1 | 48% | 13% | 5% | 103 nM | – | – | –
CC(C)N1c2nc(-n3ccnc3-c3ccc(F)cc3)ncc2N(C)C(=O)C12CCC2 | 4% | 1% | 7% | – | – | – | –
CC(C)N1c2nc(-n3ccnc3-c3ccc(F)cc3)ncc2N(C)C(=O)C1(C)C | 54% | 10% | 25% | 2710 nM | – | – | IC50 [5]: > 100000 nM
CC[C@@H]1C(=O)N(C)c2cnc(-n3ccnc3-c3ccccc3)nc2N1C1CCCC1 | 0% | 0% | 0% | 5 nM | 11.4 ×10⁻⁶ cm/s | – | solubility [6]: 100 µM (≈ 40.3 µg/mL)
CC[C@@H]1C(=O)N(C)c2cnc(-c3c[nH]nc3-c3nccs3)nc2N1C(C)C | 38% | 38% | 33% | – | 18.3 ×10⁻⁶ cm/s | – | solubility [6]: 100 µM (≈ 38.3 µg/mL)
CC[C@@H]1C(=O)N(C)c2cnc(-n3ccnc3-c3ccccc3)nc2N1C(C)C | 14% | 0% | 12% | – | – | – | logP [8]: Not Active
CC[C@@H]1C(=O)N(C)c2cnc(-n3ccnc3-c3ccccc3)nc2N1CCC(F)(F)F | 0% | 0% | 2% | – | – | 3.1 | –
CC[C@@H]1C(=O)N(C)c2cnc(-n3ccnc3-c3ccc(F)cc3)nc2N1CCC(F)(F)F | 27% | 30% | 32% | – | 15.8 ×10⁻⁶ cm/s | 3.1 | –
CC[C@@H]1C(=O)N(C)c2cnc(-n3ccnc3-c3ccc(F)cc3)nc2N1C1CC(F)(F)C1 | 19% | 14% | 30% | – | – | 3 | –
CC[C@@H]1C(=O)N(C)c2cnc(-n3ccnc3-c3ccc(F)cc3)nc2N1C1COC1 | 74% | 80% | 74% | 1040 nM | – | 1.6 | IC50 [5]: > 50000 nM
CC[C@@H]1C(=O)N(C)c2cnc(-n3ccnc3-c3ccccc3)nc2N1[C@H]1CCOC1 | 17% | 13% | 51% | – | – | 1.9 | –
CC[C@@H]1C(=O)N(C)c2cnc(-n3ccnc3-c3ccccc3)nc2N1[C@@H]1CCOC1 | 10% | 0% | 27% | – | – | 1.8 | –
CC[C@@H]1C(=O)N(C)c2cnc(-n3ccnc3-c3ccc(F)cc3)nc2N1[C@H]1CCOC1 | 58% | 67% | 63% | 33 nM | 23.4 ×10⁻⁶ cm/s | 2 | IC50 [9]: 2050 nM
CC[C@@H]1C(=O)N(C)c2cnc(-n3ccnc3-c3ccccc3)nc2N1c1cncnc1 | 55% | 76% | 60% | 44 nM | – | 1.3 | –
CC[C@@H]1C(=O)N(C)c2cnc(-n3ccnc3-c3ccc(F)cc3)nc2N1c1cn[nH]c1 | 73% | 82% | 66% | – | 8.7 ×10⁻⁶ cm/s | 1.8 | –
CC[C@@H]1C(=O)N(C)c2cnc(-n3ccnc3-c3ccc(F)cc3)nc2N1c1cnn(C)c1 | 69% | 86% | 50% | – | 21.2 ×10⁻⁶ cm/s | 2 | –

SMILES | remaining at 0.5 h, 1 µM [1] | remaining at 0.5 h, 1 µM [2] | remaining at 0.5 h, 1 µM [3] | IC50 [4] | Papp A→B at 2 h, 5 µM [7] | logP ([8]; read-out: logP) | other results
CC[C@@H]1C(=O)N(C)c2cnc(-n3ccnc3-c3ccc(F)cc3)nc2N1c1ccn(C)n1 | 63% | 26% | 25% | 7 nM | 18.5 ×10⁻⁶ cm/s | 2.4 | inhibition (INH) [10]: 41%; Kp at 6 h [11]: 0.28; Kp at 6 h [12]: 0.36; concentration at 6 h [13]: 5.2 µM; concentration at 6 h [14]: 3.2 µM; concentration at 6 h [15]: 4880 ng/mL; concentration at 6 h [16]: 6290 ng/mL; efflux ratio at 2 h, 5 µM [17]: 1.1; IC50 [5]: 1350 nM; IC50 [9]: 480 nM
CC[C@@H]1C(=O)N(C)c2cnc(-n3ccnc3-c3ccc(F)cc3)nc2N1c1ccnn1C | 74% | 80% | 72% | – | – | 1.9 | –
CC[C@@H]1C(=O)N(C)c2cnc(-c3cn[nH]c3-c3nccs3)nc2N1C1CCOCC1 | 47% | 39% | 44% | – | 18.9 ×10⁻⁶ cm/s | – | –
CC[C@@H]1C(=O)N(C)c2cnc(-c3c[nH]nc3-c3nccs3)nc2N1[C@H]1CCOC1 | 51% | 39% | 47% | 39 nM | 16.8 ×10⁻⁶ cm/s | – | IC50 [9]: 3190 nM
CC[C@@H]1C(=O)N(C)c2cnc(-c3cn[nH]c3-c3nccs3)nc2N1c1cn[nH]c1 | 84% | 48% | 57% | – | 6.6 ×10⁻⁶ cm/s | – | –
CCC1C(=O)N(C)c2cnc(-c3cn[nH]c3-c3ccccn3)nc2N1c1cnn(C)c1 (racemic) | 88% | 87% | 64% | 168 nM | 10.1 ×10⁻⁶ cm/s | – | –
CN1C(=O)C(CC(F)(F)F)N(CCC(F)(F)F)c2nc(-n3ccnc3-c3ccc(F)cc3)ncc21 (racemic) | 15% | 30% | 42% | – | – | – | –
CCC1(C)C(=O)N(C)c2cnc(-n3ccnc3-c3ccc(F)cc3)nc2N1CCC(F)(F)F (racemic) | 17% | 34% | 29% | – | – | – | –
CCC1C(=O)N(C)c2cnc(-n3ccnc3-c3ccccc3)nc2N1c1cncnc1 (racemic) | – | – | – | – | 12.2 ×10⁻⁶ cm/s | – | IC50 [9]: 3870 nM
CCC1C(=O)N(C)c2cnc(-n3ccnc3-c3ccc(F)cc3)nc2N1C1CCC(F)(F)C1 (racemic) | 6% | 8% | 15% | – | – | 3.1 | –
CCC1C(=O)N(C)c2cnc(-n3ccnc3-c3ccccc3)nc2N1c1ccccc1 (racemic) | 21% | 5% | 28% | 17 nM | – | 3.3 | –
CCC1C(=O)N(C)c2cnc(-n3ccnc3-c3ccc(F)cc3)nc2N1c1ccc(F)cc1 (racemic) | 47% | 11% | 41% | – | – | 3.4 | –
CCC1C(=O)N(C)c2cnc(-n3ccnc3-c3ccc(F)cc3)nc2N1c1ccc(C#N)cc1 (racemic) | 63% | 48% | 49% | 31 nM | – | 2.7 | –
CCC1C(=O)N(C)c2cnc(-n3ccnc3-c3ccc(F)cc3)nc2N1c1cc[nH]n1 (racemic) | 72% | 65% | 67% | 9 nM | 13.2 ×10⁻⁶ cm/s | 2.2 | IC50 [9]: 740 nM
CCC1C(=O)N(C)c2cnc(-c3cn[nH]c3-c3nccs3)nc2N1c1cnn(C)c1 (racemic) | – | – | – | 130 nM | – | – | –
